Data: patent US7678390B2, “Carbon monoxide as a biomarker and therapeutic agent” (priority 1999, dated 2010)

System: rats exposed to hyperoxia (>98% O2)
Type: in vivo, rat
Text: Animals were exposed to >98% O2 or 98% O2+CO mixtures at a flow rate of 12 liters/min in a 3.70-cubic-foot glass exposure chamber. Animals were supplied food and water during the exposures. CO at a concentration of 1% (10,000 ppm) in compressed air was mixed with >98% O2 in a stainless steel mixing cylinder prior to entering the exposure chamber. By varying the flow rates of CO into the mixing cylinder, concentrations delivered to the exposure chamber were controlled. Because the flow rate was primarily determined by the O2 flow, only the CO flow was changed to generate the different concentrations delivered to the exposure chamber. A carbon monoxide analyzer (Interscan Corporation, Chatsworth, Calif.) was used to measure CO levels continuously in the chamber. Gas samples were taken by the analyzer through a port in the top of the exposure chamber at a rate of 1 liter/min and analyzed by electrochemical detection with a sensitivity of 10 ppm to 600 ppm. CO levels in the chamber were recorded at hourly intervals and there were no changes in chamber CO concentrations once the chamber had equilibrated. O2 concentrations in the chamber were determined using a gas spectrometer.
Lungs were fixed by perfusion with 10% formalin at 20 cm H2O pressure and embedded in paraffin. Lung sections of […] were mounted onto slides pretreated with 3-aminopropylethoxysilane (Digene Diagnostics, Inc., Beltsville, Md.). Slides were baked for 30 min at 60° C. and washed twice in fresh xylene for 5 min to remove the paraffin. The slides were then rehydrated though a series of graded alcohols and then washed in distilled water for 3 min prior to staining with hematoxylin and eosin.
Animals were anesthesized with sodium pentobarbital 24 h after LPS administration or 56 h of hyperoxia exposure. BAL (35 ml/kg) was performed 4 times with PBS (pH 7.4). Cells were pooled from the lavages and centrifuged at 1200 g for 10 min. The supernatant was discarded and cells were resuspended in PBS. Cell counts were performed using a Neubaur hemocytometer. For differential analysis, samples were cytocentrifuged and stained with Diff-Quik. Measurement of Injury Markers Rats were removed at 56 h of hyperoxia and anesthetized with sodium pentobarbital. The pleural effusion was collected by inserting an 18 gauge needle and 10 cc syringe through the diaphragm and withdrawing all fluid present in the pleural cavity. BAL was performed as described above, and the first lavage was centrifuged at 1200 g for 10 min and the supernatant was assayed for the protein albumin as determined by Bromcresol Green Kit (BCG) from Sigma (St. Louis, Mo.). Arterial Blood Oxygen Tension and Carboxyhemoglobin Determination Indwelling catheters were surgically implanted into the carotid arteries of rats anesthetized with 3% v/v isoflurane. Animals were secured in jackets and tethers to allow movement about the cage and access to food and water which were placed inside the exposure chambers. Polyethelene tubing, connected to the catheter and threaded out through an airtight fitting in the lid of the chamber, was used for continuous heparin infusion throughout the exposure (20 U/ml at 0.1 ml/h) to maintain patency of the vessel. At each time point, 1 cc of blood was drawn into a heparinized syringe, sealed and placed on ice until analyzed for oxygen tension. Arterial oxygen tension and carboxyhemoglobin were determined using a BG3 Instrumentation Laboratory Blood Gas Analyzer and Co-oximeter (Boston, Mass.). […]

[1] = hyperoxia in the presence of CO

## [C-]#[O+] [CO, carbon monoxide]
56 h hyperoxia in the presence of CO (250 ppm)
  neutrophil influx into the airways (BAL): significant reductions
56 h hyperoxia in the presence of CO (250 ppm), TUNEL/DAPI
  lung apoptotic index: 1.8%±0.12
56 h hyperoxia in the presence of a low concentration of CO
  volume of pleural effusion: marked inhibition
[1]
  lung histology: completely normal macroscopically and microscopically
  protein accumulation into the airways (bronchoalveolar lavage): significantly lower levels
